Results taken from ChEMBL document CHEMBL1201862, “PubChem BioAssay data set” (2004).
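Dose response: 5 concentrations. Exposure: 48 h. Format: 96-well plates. Endpoint: linear interpolation; highest concentration if not reached. Abbreviation: GI50, concentration required for 50% inhibition of growth.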 Active and inactive are the calls of the source. No stated cut-off is given here; in the data, active = GI50 up to about 1.1 µM and inactive = higher.

Assays:
Experiment in all cases: DTP human tumour cell line panel, 48 h
SNB-19 = system: SNB-19
NCI-H23 = system: NCI-H23
HOP-92 = system: HOP-92
CAKI-1 = system: CAKI-1
MDA-N = system: MDA-N
SK-MEL-28 = system: SK-MEL-28
TK-10 = system: TK-10
M14 = system: M14
MCF7 = system: MCF7
PC-3 = system: PC-3
IGROV-1 = system: IGROV-1
LOX IMVI = system: LOX IMVI
BT-549 = system: BT-549
UO-31 = system: UO-31
SW-620 = system: SW-620
786-0 = system: 786-0
SR = system: SR
EKVX = system: EKVX
SK-MEL-2 = system: SK-MEL-2

Compound | GI50 (SNB-19) | GI50 (NCI-H23) | GI50 (HOP-92) | GI50 (CAKI-1) | GI50 (MDA-N) | GI50 (SK-MEL-28) | GI50 (TK-10) | GI50 (M14) | GI50 (MCF7) | GI50 (PC-3) | GI50 (IGROV-1) | GI50 (LOX IMVI) | GI50 (BT-549) | GI50 (UO-31) | GI50 (SW-620) | GI50 (786-0) | GI50 (SR) | GI50 (EKVX) | GI50 (SK-MEL-2)
O=[N+]([O-])c1ccc2[nH]c(-c3ccc(Cl)cc3)nc2c1 | 26 µM (inactive) | 25.3 µM (inactive) | 29 µM (inactive) | 31.1 µM (inactive) | 24 µM (inactive) | 39 µM (inactive) | 32.6 µM (inactive) | 19.1 µM (inactive) | 18.7 µM (inactive) | 21.4 µM (inactive) | 31 µM (inactive) | 18.1 µM (inactive) | 29.7 µM (inactive) | 23.9 µM (inactive) | 32.7 µM (inactive) | 33 µM (inactive) | 26.3 µM (inactive) | 14.4 µM (inactive) | –
CN(C)CCCNc1ncnc2[nH]cnc12 | > 100 µM (inactive) | > 100 µM (inactive) | 38.1 µM (inactive) | > 100 µM (inactive) | > 100 µM (inactive) | > 100 µM (inactive) | > 100 µM (inactive) | > 100 µM (inactive) | > 100 µM (inactive) | > 100 µM (inactive) | > 100 µM (inactive) | > 100 µM (inactive) | > 100 µM (inactive) | > 100 µM (inactive) | > 100 µM (inactive) | > 100 µM (inactive) | – | > 100 µM (inactive) | > 100 µM (inactive)
NNc1nnc(-c2nnc(NN)o2)o1 | > 10 µM (inactive) | > 10 µM (inactive) | > 10 µM (inactive) | > 10 µM (inactive) | > 10 µM (inactive) | > 10 µM (inactive) | > 10 µM (inactive) | > 10 µM (inactive) | > 10 µM (inactive) | > 10 µM (inactive) | > 10 µM (inactive) | – | > 10 µM (inactive) | > 10 µM (inactive) | > 10 µM (inactive) | > 10 µM (inactive) | > 10 µM (inactive) | > 10 µM (inactive) | –
CN1C2CCC1CC(CC(=O)NC(c1ccc(F)cc1)c1ccc(F)cc1)C2 (stereo not given) | > 100 µM (inactive) | > 100 µM (inactive) | 60 µM (inactive) | > 100 µM (inactive) | 41.9 µM (inactive) | 22.5 µM (inactive) | > 100 µM (inactive) | 18 µM (inactive) | – | > 100 µM (inactive) | > 100 µM (inactive) | 80 µM (inactive) | > 100 µM (inactive) | 56.1 µM (inactive) | > 100 µM (inactive) | 64.7 µM (inactive) | 30.2 µM (inactive) | > 100 µM (inactive) | 22.5 µM (inactive)
O=C(O)CC1NC(/C(=C/c2ccccc2)NC(=O)c2ccccc2)OC1=O (stereo not given) | 25.9 µM (inactive) | 42.7 µM (inactive) | > 100 µM (inactive) | > 100 µM (inactive) | 30.1 µM (inactive) | 24.3 µM (inactive) | > 100 µM (inactive) | 17.1 µM (inactive) | 47.2 µM (inactive) | > 100 µM (inactive) | 25.1 µM (inactive) | 16.2 µM (inactive) | 19.9 µM (inactive) | 23.8 µM (inactive) | 19.5 µM (inactive) | 29.4 µM (inactive) | – | 39.6 µM (inactive) | 27.6 µM (inactive)
CC1CCCN(CC(O)CN2CCCc3ccccc32)C1 (stereo not given) | > 100 µM (inactive) | > 100 µM (inactive) | – | > 100 µM (inactive) | > 100 µM (inactive) | > 100 µM (inactive) | > 100 µM (inactive) | > 100 µM (inactive) | > 100 µM (inactive) | > 100 µM (inactive) | > 100 µM (inactive) | > 100 µM (inactive) | > 100 µM (inactive) | 76 µM (inactive) | > 100 µM (inactive) | > 100 µM (inactive) | > 100 µM (inactive) | > 100 µM (inactive) | > 100 µM (inactive)
O/N=C(\CC(O)(C(F)(F)F)C(F)(F)F)c1cccs1 | > 10 µM (inactive) | > 10 µM (inactive) | > 10 µM (inactive) | > 10 µM (inactive) | > 10 µM (inactive) | > 10 µM (inactive) | > 10 µM (inactive) | > 10 µM (inactive) | > 10 µM (inactive) | > 10 µM (inactive) | > 10 µM (inactive) | > 10 µM (inactive) | > 10 µM (inactive) | > 10 µM (inactive) | > 10 µM (inactive) | > 10 µM (inactive) | – | > 10 µM (inactive) | > 10 µM (inactive)
CC1OC(OC2C(O[C@H]3CC[C@@]4(C)[C@@H](CC[C@@H]5[C@@H]4CC[C@]4(C)[C@@H]6[C@H](C[C@@H]54)O[C@]4(CC[C@@H](C)CO4)[C@H]6C)C3)OC(CO)C(OC3OC(CO)C(O)C(OC4OCC(O)C(O)C4O)C3OC3OCC(O)C(O)C3O)C2O)C(O)C(O)C1O (stereo not given in full) | 0.995 µM (active) | 1.52 µM (inactive) | 1.67 µM (inactive) | 0.706 µM (active) | 3.73 µM (inactive) | 0.745 µM (active) | 1.66 µM (inactive) | 0.434 µM (active) | 0.342 µM (active) | 0.64 µM (active) | 1.01 µM (active) | 0.514 µM (active) | 1.08 µM (active) | 1.04 µM (active) | 0.251 µM (active) | 1.64 µM (inactive) | – | 1.51 µM (inactive) | 1.02 µM (active)
CCOC(=O)c1c(N2CCCC2)[nH]c(=O)c(C(c2ccc(N(C)C)cc2)c2c(O)c(C(=O)OCC)c(N3CCCC3)[nH]c2=O)c1O | > 100 µM (inactive) | 95.5 µM (inactive) | > 100 µM (inactive) | > 100 µM (inactive) | > 100 µM (inactive) | > 100 µM (inactive) | 94.2 µM (inactive) | > 100 µM (inactive) | > 100 µM (inactive) | > 100 µM (inactive) | – | > 100 µM (inactive) | 30.4 µM (inactive) | > 100 µM (inactive) | > 100 µM (inactive) | > 100 µM (inactive) | > 100 µM (inactive) | > 100 µM (inactive) | –
CC(C)(Cl)C(Br)CCC(C)(Cl)C(Br)CBr (stereo not given) | 39.4 µM (inactive) | 20.7 µM (inactive) | 15.8 µM (inactive) | – | 31 µM (inactive) | 29.1 µM (inactive) | 35.4 µM (inactive) | 34.5 µM (inactive) | 17.6 µM (inactive) | 27.2 µM (inactive) | 23.3 µM (inactive) | – | 13.3 µM (inactive) | 31.9 µM (inactive) | 27.5 µM (inactive) | 24.5 µM (inactive) | 2.58 µM (inactive) | 32.1 µM (inactive) | 18.1 µM (inactive)
CCOC(=O)CCCN | > 100 µM (inactive) | > 100 µM (inactive) | > 100 µM (inactive) | > 100 µM (inactive) | > 100 µM (inactive) | > 100 µM (inactive) | > 100 µM (inactive) | > 100 µM (inactive) | > 100 µM (inactive) | > 100 µM (inactive) | > 100 µM (inactive) | > 100 µM (inactive) | > 100 µM (inactive) | > 100 µM (inactive) | > 100 µM (inactive) | > 100 µM (inactive) | – | > 100 µM (inactive) | > 100 µM (inactive)
